Laboratory results from PubChem BioAssay (NCI).
“And” between values parts separate entries of the source, which are not always exact repeats. Identical values can stand only once.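 Briefly, cells in 96-well plates were exposed to five compound concentrations for 48 h, and endpoints were estimated by linear interpolation. Here, GI50 denotes the concentration required for 50% inhibition of growth. TGI: concentration producing complete growth inhibition.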

system: COLO 205 colon; test: DTP human tumour cell line panel, 48 h

SMILES	GI50	TGI
CCN(CC)CCOc1ccc(-c2nc3cc(Cl)ccc3s2)cc1	1.45 µM	2.76 µM
C=C1C(=O)O[C@@H]2C[C@@H]1CC/C(C)=C/CC/C(C)=C/CC[C@@]2(C)O	34.1 µM	99.2 µM
[N-]=[N+]=NC12CC3C4CC5CC3C(C1)C(C5)C4C2	–	> 100 µM
O=C1c2cccc(NCCCNCCO)c2C(=O)c2cccc(NCCCNCCO)c21	–	2.67 µM and 3.78 µM
Cc1cc(CC(O)c2ccc(Cl)c(Cl)c2)nc(=O)[nH]1 (stereo not given)	–	85.2 µM
CC1=NNC(=O)C2CCC(=O)N12 (stereo not given)	–	> 100 µM
Cn1c2c(c3ccccc31)C1CCCCCCC1C1C(=O)OC(=O)C21 (stereo not given)	–	> 100 µM
Cc1ccc(S(=O)(=O)N(CC(=O)O)c2ccccc2)cc1	–	> 100 µM
COc1ccc(/C=C(/C(=O)N2CCN(c3ccccc3)CC2)c2cc(OC)c(OC)c(OC)c2)cc1O	3.89 µM	22.1 µM
O=C1/C(=C/c2ccc(Br)cc2)COc2ccc(O)c(O)c21	1.53 µM	3.18 µM
N#CC(N)(C(=O)CCC(=O)Nc1cccc(Cl)c1)c1ccc(Cl)cc1 (stereo not given)	–	> 100 µM
O=C(Nc1nc2ccc(C(F)(F)F)cc2s1)c1cc(Cl)ccc1O	1.38 µM	4 µM
COc1cnc2c(c1)C(=O)c1c-2n(CCCNC(C)C)c(=O)c2cc(Cl)ccc12	0.111 µM	2 µM
CN(C)N=Nc1ccc(NC=O)cc1	–	> 100 µM
COc1cc(N(CCC#N)CCC#N)ccc1/C(N=Nc1ccc([N+](=O)[O-])cc1)=N/NC(=O)c1cc(Br)ccc1O	24 µg/mL	45.9 µg/mL
C=C1C(=O)OC2CCN3CC=C(COC(=O)C(C)(O)C4(CO4)C1C)C23 (stereo not given)	–	> 100 µM

system: HCT-15 colon; test: DTP human tumour cell line panel, 48 h

SMILES	GI50	TGI
OC[C@H]1C[C@](O)(c2ccc(Cl)cc2)[C@@H](c2ccc(Cl)cc2)O1	31.7 µM	> 100 µM
CC(C)N(C(=O)C12C3C4C5(C#N)C3C1(C#N)C5C42I)C(C)C (stereo not given)	–	> 100 µM
C=COCCCOc1ccccc1	–	> 100 µM
COc1cc2nc(-c3ccc(Cl)cc3)cc(OCCCN3CCCCC3)c2cc1OC	0.604 µM	> 100 µM
COc1ccc2c3c([nH]c2c1[N+](=O)[O-])C(C)=NCC3	–	> 100 µM
C=C(c1nc2ccc(Cl)cc2[nH]c1=O)C(O)c1ccc(C(O)C(=O)c2nc3ccc(Cl)cc3[nH]c2=O)cc1 (stereo not given)	–	> 100 µM
O=c1c2sc(=S)n(-c3ccc(F)cc3)c2ncn1Cc1ccc(F)cc1F	> 100 µM	> 100 µM
CC(C)(C)CC(C)(C)c1cc2c(O)c(c1)Cc1cc(C(C)(C)CC(C)(C)C)cc(c1O)Cc1cc(C(C)(C)CC(C)(C)C)cc(c1O)Cc1cc(C(C)(C)CC(C)(C)C)cc(c1O)C2	–	> 100 µM
C=CCCCCC/C=C\[C@H](O)C#CC#C/C=C/CO	30 µM	> 100 µM
COc1cc(C#CC(=O)OC/C=C/c2ccc3c(c2)OCO3)cc(OC)c1OC	–	78.8 µM
Cc1cc([N+](=O)[O-])ccc1Nc1cccc(Cl)c1C	–	35 µM
O/N=C/C1C(OCc2ccccc2)C(OCc2ccccc2)C(OCc2ccccc2)CN1Cc1ccccc1 (stereo not given)	25.7 µM and 9.77 µM	> 100 µM
O=C1NC(=O)C(c2cnc3ccccn23)=C1c1cn2c3c(cc(F)cc13)CN(C(=O)N1CCCCC1)CC2	13.3 µM	66.9 µM
Clc1nc2ccccc2nc1CI	2.41 µM	6.46 µM
[Cl][Hg][c]1cc(Br)cc(Br)c1	1.6 µM	3.22 µM
CC(C)c1ccc2c(c1)CC[C@@H]1[C@@](C)(C(=O)O)CCC[C@]21C	6.38 µM	19.6 µM

SMILES	GI50	TGI
CCN(CC)CCOc1ccc(-c2nc3cc(Cl)ccc3s2)cc1	1.19 µM	2.42 µM
C=C1C(=O)O[C@@H]2C[C@@H]1CC/C(C)=C/CC/C(C)=C/CC[C@@]2(C)O	18.2 µM	51.4 µM
O=C1c2cccc(NCCCNCCO)c2C(=O)c2cccc(NCCCNCCO)c21	–	19.8 µM and 23.3 µM
Cc1cc(CC(O)c2ccc(Cl)c(Cl)c2)nc(=O)[nH]1 (stereo not given)	–	> 100 µM
CC1=NNC(=O)C2CCC(=O)N12 (stereo not given)	–	> 100 µM
Cn1c2c(c3ccccc31)C1CCCCCCC1C1C(=O)OC(=O)C21 (stereo not given)	–	> 100 µM
Cc1ccc(S(=O)(=O)N(CC(=O)O)c2ccccc2)cc1	–	> 100 µM
COc1ccc(/C=C(/C(=O)N2CCN(c3ccccc3)CC2)c2cc(OC)c(OC)c(OC)c2)cc1O	0.341 µM	> 100 µM
O=C1/C(=C/c2ccc(Br)cc2)COc2ccc(O)c(O)c21	0.302 µM	1.51 µM
N#CC(N)(C(=O)CCC(=O)Nc1cccc(Cl)c1)c1ccc(Cl)cc1 (stereo not given)	–	> 100 µM
O=C(Nc1nc2ccc(C(F)(F)F)cc2s1)c1cc(Cl)ccc1O	0.346 µM	12.9 µM
COc1cnc2c(c1)C(=O)c1c-2n(CCCNC(C)C)c(=O)c2cc(Cl)ccc12	1.08 µM	2.78 µM
CN1CCN(CCOc2ccc(-c3cnc4c(-c5ccccc5F)cnn4c3)cc2)CC1	1.25 µM	2.63 µM
CN(C)N=Nc1ccc(NC=O)cc1	–	> 100 µM
COc1cc(N(CCC#N)CCC#N)ccc1/C(N=Nc1ccc([N+](=O)[O-])cc1)=N/NC(=O)c1cc(Br)ccc1O	25.6 µg/mL	68.2 µg/mL
C=C1C(=O)OC2CCN3CC=C(COC(=O)C(C)(O)C4(CO4)C1C)C23 (stereo not given)	–	> 100 µM

system: HOP-62 NSCLC; test: DTP human tumour cell line panel, 48 h

SMILES	GI50	TGI
OC[C@H]1C[C@](O)(c2ccc(Cl)cc2)[C@@H](c2ccc(Cl)cc2)O1	20.9 µM	51.8 µM
CC(C)N(C(=O)C12C3C4C5(C#N)C3C1(C#N)C5C42I)C(C)C (stereo not given)	–	> 100 µM
C=COCCCOc1ccccc1	–	> 100 µM
COc1cc2nc(-c3ccc(Cl)cc3)cc(OCCCN3CCCCC3)c2cc1OC	2.37 µM	> 100 µM
COc1ccc2c3c([nH]c2c1[N+](=O)[O-])C(C)=NCC3	–	> 100 µM
C=C(c1nc2ccc(Cl)cc2[nH]c1=O)C(O)c1ccc(C(O)C(=O)c2nc3ccc(Cl)cc3[nH]c2=O)cc1 (stereo not given)	–	> 100 µM
O=c1c2sc(=S)n(-c3ccc(F)cc3)c2ncn1Cc1ccc(F)cc1F	> 100 µM	> 100 µM
CC(C)(C)CC(C)(C)c1cc2c(O)c(c1)Cc1cc(C(C)(C)CC(C)(C)C)cc(c1O)Cc1cc(C(C)(C)CC(C)(C)C)cc(c1O)Cc1cc(C(C)(C)CC(C)(C)C)cc(c1O)C2	–	> 100 µM
C=CCCCCC/C=C\[C@H](O)C#CC#C/C=C/CO	> 100 µM	> 100 µM
COc1cc(C#CC(=O)OC/C=C/c2ccc3c(c2)OCO3)cc(OC)c1OC	–	86 µM
Cc1cc([N+](=O)[O-])ccc1Nc1cccc(Cl)c1C	–	28 µM
O/N=C/C1C(OCc2ccccc2)C(OCc2ccccc2)C(OCc2ccccc2)CN1Cc1ccccc1 (stereo not given)	17.8 µM and 45.4 µM	53.1 µM and > 100 µM
O=C1NC(=O)C(c2cnc3ccccn23)=C1c1cn2c3c(cc(F)cc13)CN(C(=O)N1CCCCC1)CC2	15 µM	40.4 µM
Clc1nc2ccccc2nc1CI	13.4 µM	30.6 µM
[Cl][Hg][c]1cc(Br)cc(Br)c1	1.83 µM	3.52 µM
CC(C)c1ccc2c(c1)CC[C@@H]1[C@@](C)(C(=O)O)CCC[C@]21C	10.8 µM	22.7 µM
CCN(CC)CCOc1ccc(-c2nc3cc(Cl)ccc3s2)cc1	1.74 µM	3.25 µM
[N-]=[N+]=NC12CC3C4CC5CC3C(C1)C(C5)C4C2	–	> 100 µM
O=C1c2cccc(NCCCNCCO)c2C(=O)c2cccc(NCCCNCCO)c21	–	6.38 µM and 6.71 µM
Cc1cc(CC(O)c2ccc(Cl)c(Cl)c2)nc(=O)[nH]1 (stereo not given)	–	86.5 µM
CC1=NNC(=O)C2CCC(=O)N12 (stereo not given)	–	> 100 µM
COc1ccc(/C=C(/C(=O)N2CCN(c3ccccc3)CC2)c2cc(OC)c(OC)c(OC)c2)cc1O	0.55 µM	> 100 µM
N#CC(N)(C(=O)CCC(=O)Nc1cccc(Cl)c1)c1ccc(Cl)cc1 (stereo not given)	–	> 100 µM
O=C(Nc1nc2ccc(C(F)(F)F)cc2s1)c1cc(Cl)ccc1O	2.03 µM	7.09 µM
COc1cnc2c(c1)C(=O)c1c-2n(CCCNC(C)C)c(=O)c2cc(Cl)ccc12	0.0709 µM	1.53 µM
CN1CCN(CCOc2ccc(-c3cnc4c(-c5ccccc5F)cnn4c3)cc2)CC1	1.7 µM	3.54 µM
CN(C)N=Nc1ccc(NC=O)cc1	–	> 100 µM

system: MOLT-4 leukemia; test: DTP human tumour cell line panel, 48 h

SMILES	GI50 [µM]	TGI [µM]
OC[C@H]1C[C@](O)(c2ccc(Cl)cc2)[C@@H](c2ccc(Cl)cc2)O1	17.6	60.1
